Reference: ChEMBL document CHEMBL5370623, “Discovery of Quinazoline-2,4(1H,3H)-dione Derivatives Containing a Piperizinone Moiety as Potent PARP-1/2 Inhibitors─Design, Synthesis, In Vivo Antitumor Activity, and X-ray Crystal Structure Analysis” (J Med Chem, 2023)
pIC50: −log10 of the molar value. The source made the active and inactive calls. The calls are words filed in the database; no cut-off is given here.

Tests used:
[1] = molecular target: T1, Poly [ADP-ribose] polymerase 1 (Homo sapiens, UniProt P09874)
T1 sequence (P09874 whole entry): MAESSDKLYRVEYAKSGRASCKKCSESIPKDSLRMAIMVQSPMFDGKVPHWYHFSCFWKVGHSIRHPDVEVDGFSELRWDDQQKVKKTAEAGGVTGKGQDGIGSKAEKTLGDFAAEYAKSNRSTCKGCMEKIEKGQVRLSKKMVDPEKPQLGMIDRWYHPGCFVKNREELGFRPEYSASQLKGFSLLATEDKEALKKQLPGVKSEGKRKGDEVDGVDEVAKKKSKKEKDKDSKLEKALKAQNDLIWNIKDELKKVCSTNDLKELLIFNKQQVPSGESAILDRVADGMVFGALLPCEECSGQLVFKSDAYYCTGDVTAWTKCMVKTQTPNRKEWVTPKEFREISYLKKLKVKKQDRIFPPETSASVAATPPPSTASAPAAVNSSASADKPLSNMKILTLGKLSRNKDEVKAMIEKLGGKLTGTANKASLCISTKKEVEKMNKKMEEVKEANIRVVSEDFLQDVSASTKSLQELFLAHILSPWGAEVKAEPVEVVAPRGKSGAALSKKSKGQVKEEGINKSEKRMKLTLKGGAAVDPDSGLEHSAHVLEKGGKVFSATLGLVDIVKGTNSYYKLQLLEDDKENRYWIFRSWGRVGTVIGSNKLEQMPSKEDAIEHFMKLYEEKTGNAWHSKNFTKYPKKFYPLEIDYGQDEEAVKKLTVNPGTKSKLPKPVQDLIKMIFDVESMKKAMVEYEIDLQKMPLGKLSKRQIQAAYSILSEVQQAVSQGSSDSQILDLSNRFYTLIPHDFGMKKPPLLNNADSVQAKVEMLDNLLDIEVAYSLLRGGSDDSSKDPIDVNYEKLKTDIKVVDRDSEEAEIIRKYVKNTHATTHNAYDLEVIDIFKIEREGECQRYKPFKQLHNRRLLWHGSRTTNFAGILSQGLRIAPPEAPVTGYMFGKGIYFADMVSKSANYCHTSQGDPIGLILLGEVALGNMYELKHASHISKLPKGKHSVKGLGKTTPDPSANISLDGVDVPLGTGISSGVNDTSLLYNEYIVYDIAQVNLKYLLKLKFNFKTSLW
Description: Inhibition of PARP1 (unknown origin)

[2] = molecular target: Protein mono-ADP-ribosyltransferase TIPARP (Homo sapiens) (UniProt Q7Z3E1); assay: Inhibition of PARP7 in human THP-1 cells assessed as induction of TBK1 phosphorylation at 10 uM incubated for 24 hrs by immunoblotting analysis; format: cell-based
[3] = molecular target: Poly [ADP-ribose] polymerase tankyrase-1 (Homo sapiens) (UniProt O95271); assay: Inhibition of human recombinant N-terminal GST-tagged TNKS1 (1001 to 1327(end) residues) expressed in Sf9 cells at 1 uM relative to control
Felis catus [4] = organism: Felis catus; assay: Binding affinity to cat PARP2 assessed as dissociative half-life by SPR assay
[5] = molecular target: Poly [ADP-ribose] polymerase tankyrase-2 (Homo sapiens) (UniProt Q9H2K2); assay: Inhibition of human recombinant N-terminal GST-tagged TNKS2 (849 to 1166(end) residues) expressed in Sf9 cells at 1 uM relative to control
Chain of Poly [ADP-ribose] polymerase tankyrase-2 (Homo sapiens) (Q9H2K2 whole entry): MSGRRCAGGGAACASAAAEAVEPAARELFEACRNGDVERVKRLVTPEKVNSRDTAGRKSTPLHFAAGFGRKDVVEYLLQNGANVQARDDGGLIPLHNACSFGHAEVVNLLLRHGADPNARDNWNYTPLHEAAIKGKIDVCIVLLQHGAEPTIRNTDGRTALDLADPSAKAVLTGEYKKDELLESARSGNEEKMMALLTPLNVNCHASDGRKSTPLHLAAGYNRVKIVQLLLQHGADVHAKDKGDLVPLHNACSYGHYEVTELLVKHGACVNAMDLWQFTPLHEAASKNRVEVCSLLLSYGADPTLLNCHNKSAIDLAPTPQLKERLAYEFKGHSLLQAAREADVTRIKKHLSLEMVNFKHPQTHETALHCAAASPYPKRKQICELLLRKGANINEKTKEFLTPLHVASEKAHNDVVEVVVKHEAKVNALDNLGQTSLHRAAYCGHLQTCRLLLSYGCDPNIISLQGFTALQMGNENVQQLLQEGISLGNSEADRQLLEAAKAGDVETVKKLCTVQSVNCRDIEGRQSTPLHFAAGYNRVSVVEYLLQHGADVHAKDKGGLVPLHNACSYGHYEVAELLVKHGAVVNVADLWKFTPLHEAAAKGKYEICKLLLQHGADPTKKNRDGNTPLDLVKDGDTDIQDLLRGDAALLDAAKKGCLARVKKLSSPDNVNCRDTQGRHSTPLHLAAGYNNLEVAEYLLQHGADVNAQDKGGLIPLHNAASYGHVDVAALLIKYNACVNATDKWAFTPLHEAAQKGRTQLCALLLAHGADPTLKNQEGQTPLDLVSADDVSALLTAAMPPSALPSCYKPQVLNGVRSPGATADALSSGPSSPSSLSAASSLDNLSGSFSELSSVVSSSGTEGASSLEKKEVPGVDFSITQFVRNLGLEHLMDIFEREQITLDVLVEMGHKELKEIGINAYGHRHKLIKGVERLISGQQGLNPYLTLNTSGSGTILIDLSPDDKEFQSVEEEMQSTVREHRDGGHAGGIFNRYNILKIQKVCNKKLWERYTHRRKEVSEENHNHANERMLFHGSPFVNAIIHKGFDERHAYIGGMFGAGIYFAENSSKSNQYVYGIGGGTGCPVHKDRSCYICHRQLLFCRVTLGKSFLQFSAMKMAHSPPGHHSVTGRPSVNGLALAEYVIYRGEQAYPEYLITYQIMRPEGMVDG

THP-1 = assay: Inhibition of PARP1/2 mediated DNA repair pathway in human THP-1 cells assessed as induction of gamma-H2AX phosphorylation at 10 uM incubated for 24 hrs by immunoblotting analysis; format: cell-based
[6] = molecular target: Protein mono-ADP-ribosyltransferase PARP12 (Homo sapiens) (UniProt Q9H0J9); assay: Inhibition of human N-terminal FLAG/His-tagged recombinant PARP12 (500 to 701(end) residues) expressed in Sf9 cells at 1 uM relative to control
Chain of Protein mono-ADP-ribosyltransferase PARP12 (Homo sapiens) (Q9H0J9 whole entry): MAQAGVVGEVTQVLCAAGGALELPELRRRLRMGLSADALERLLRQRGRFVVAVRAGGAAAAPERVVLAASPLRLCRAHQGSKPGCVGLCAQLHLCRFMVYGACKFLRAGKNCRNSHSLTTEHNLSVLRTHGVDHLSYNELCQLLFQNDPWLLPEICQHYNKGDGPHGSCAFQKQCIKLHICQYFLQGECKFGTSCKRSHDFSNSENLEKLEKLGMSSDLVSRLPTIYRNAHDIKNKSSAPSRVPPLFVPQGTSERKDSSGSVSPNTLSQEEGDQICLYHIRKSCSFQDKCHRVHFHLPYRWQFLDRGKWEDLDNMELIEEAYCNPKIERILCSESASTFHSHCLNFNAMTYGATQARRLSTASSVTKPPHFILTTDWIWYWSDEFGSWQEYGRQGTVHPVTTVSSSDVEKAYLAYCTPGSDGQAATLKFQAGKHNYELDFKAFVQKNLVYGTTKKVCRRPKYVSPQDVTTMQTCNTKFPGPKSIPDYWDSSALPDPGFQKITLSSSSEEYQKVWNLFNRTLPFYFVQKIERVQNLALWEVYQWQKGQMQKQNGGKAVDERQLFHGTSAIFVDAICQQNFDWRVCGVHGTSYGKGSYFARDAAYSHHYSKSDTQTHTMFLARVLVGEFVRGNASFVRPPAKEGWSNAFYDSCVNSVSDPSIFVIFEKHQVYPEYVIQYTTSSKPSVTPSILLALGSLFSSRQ

[7] = molecular target: Protein mono-ADP-ribosyltransferase PARP15 (Homo sapiens) (UniProt Q460N3); assay: Inhibition of human N-terminal GST-tagged recombinant PARP15 (221 to 444(end) residues) expressed in Escherichia coli at 1 uM relative to control
MC-38 [8] = assay: Antitumor activity against mouse MC38 cells implanted in C57BL/6 mouse assessed as increase in CD8+T cells in tumor at 10 mg/kg, po qd measured after 17 days by flow cytometry analysis; format: functional, organism-based; details: time 17.0 day
[9] = molecular target: Protein mono-ADP-ribosyltransferase PARP10 (Homo sapiens) (UniProt Q53GL7); assay: Inhibition of human N-terminal FLAG-tagged/C-terminal Strep-tagged recombinant PARP10 (805 to 1025 residues) expressed in Sf9 cells at 1 uM relative to control
[10] = molecular target: Protein mono-ADP-ribosyltransferase PARP14 (Homo sapiens) (UniProt Q460N5); assay: Inhibition of human N-terminal GST/His-tagged recombinant PARP14 (1470 to 1801(end) residues) expressed in Sf9 cells at 1 uM relative to control
Chain of Protein mono-ADP-ribosyltransferase PARP14 (Homo sapiens) (Q460N5 whole entry): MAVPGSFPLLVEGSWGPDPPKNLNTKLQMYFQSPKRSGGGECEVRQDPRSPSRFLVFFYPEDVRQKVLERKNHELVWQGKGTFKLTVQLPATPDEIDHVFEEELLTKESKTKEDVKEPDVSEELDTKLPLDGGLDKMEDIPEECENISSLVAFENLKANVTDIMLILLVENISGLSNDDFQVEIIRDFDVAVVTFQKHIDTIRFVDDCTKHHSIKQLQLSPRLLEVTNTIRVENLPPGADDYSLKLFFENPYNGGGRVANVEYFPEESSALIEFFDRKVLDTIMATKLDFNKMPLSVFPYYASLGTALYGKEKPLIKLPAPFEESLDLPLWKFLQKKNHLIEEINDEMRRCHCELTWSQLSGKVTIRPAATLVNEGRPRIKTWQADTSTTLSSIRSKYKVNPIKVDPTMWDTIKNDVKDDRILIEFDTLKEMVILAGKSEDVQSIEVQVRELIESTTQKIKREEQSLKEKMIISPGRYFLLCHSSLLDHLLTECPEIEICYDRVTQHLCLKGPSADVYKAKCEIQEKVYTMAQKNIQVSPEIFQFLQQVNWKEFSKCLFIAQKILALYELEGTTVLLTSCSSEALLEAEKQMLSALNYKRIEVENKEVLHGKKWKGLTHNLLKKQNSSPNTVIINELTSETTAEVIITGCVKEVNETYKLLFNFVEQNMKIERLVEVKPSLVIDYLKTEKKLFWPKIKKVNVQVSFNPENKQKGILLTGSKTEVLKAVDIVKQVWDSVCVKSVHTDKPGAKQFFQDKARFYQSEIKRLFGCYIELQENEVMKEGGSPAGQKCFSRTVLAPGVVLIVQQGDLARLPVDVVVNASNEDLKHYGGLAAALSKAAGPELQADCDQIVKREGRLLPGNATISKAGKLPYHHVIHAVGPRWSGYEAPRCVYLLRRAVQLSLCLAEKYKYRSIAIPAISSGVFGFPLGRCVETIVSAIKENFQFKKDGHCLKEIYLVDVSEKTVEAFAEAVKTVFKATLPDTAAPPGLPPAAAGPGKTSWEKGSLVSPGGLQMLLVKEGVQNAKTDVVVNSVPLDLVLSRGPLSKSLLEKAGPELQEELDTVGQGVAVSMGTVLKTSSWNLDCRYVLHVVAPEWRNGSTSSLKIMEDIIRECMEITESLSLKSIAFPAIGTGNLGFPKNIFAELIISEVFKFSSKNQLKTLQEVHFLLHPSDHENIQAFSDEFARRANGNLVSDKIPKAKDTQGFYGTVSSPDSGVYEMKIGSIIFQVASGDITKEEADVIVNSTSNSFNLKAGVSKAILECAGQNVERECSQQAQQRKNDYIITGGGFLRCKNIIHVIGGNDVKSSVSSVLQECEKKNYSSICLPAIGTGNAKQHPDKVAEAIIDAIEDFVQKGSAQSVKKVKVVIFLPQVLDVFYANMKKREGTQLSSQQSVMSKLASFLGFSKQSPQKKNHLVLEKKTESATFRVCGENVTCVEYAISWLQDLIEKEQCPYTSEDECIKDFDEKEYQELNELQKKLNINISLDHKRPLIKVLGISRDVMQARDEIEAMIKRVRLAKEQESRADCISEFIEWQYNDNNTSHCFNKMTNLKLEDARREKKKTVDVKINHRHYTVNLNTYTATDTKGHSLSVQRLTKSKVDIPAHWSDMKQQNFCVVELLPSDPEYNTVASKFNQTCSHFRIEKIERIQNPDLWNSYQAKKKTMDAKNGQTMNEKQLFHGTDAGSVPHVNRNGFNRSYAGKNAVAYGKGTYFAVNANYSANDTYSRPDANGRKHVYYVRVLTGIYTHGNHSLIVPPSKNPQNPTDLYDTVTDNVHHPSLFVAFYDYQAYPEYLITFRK

[11] = molecular target: Protein mono-ADP-ribosyltransferase PARP11 (Homo sapiens) (UniProt Q9NR21); assay: Inhibition of human N-terminal FLAG-tagged/C-terminal His-tagged recombinant PARP11 (8 to 338 (end) residues) expressed in Sf9 cells at 1 uM relative to control
Chain of Protein mono-ADP-ribosyltransferase PARP11 (Homo sapiens) (Q9NR21 whole entry): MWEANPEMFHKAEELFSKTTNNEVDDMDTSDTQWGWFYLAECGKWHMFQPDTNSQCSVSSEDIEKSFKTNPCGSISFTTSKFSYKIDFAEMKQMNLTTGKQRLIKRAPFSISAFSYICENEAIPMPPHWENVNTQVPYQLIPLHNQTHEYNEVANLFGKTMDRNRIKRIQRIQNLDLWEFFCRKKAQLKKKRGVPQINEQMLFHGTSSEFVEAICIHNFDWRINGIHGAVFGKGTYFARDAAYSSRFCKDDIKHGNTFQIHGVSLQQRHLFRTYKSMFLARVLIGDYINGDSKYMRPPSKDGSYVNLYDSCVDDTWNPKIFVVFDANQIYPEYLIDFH

[12] = molecular target: T1, Poly [ADP-ribose] polymerase 1; assay: Inhibition of human PARP1 in human MX1 cells assessed as enzyme-DNA trapping activity at 1 uM incubated for 24 hrs by Western blot analysis; format: cell-based
Felis catus [13] = organism: Felis catus; assay: Binding affinity to cat PARP1 assessed as dissociative half-life by SPR assay
MX1 [14] = assay: Potentiation factor, ratio of IC50 for cytotoxicity against human MX1 cells to IC50 for cytotoxicity against human MX1 cells in presence of temozolomide; format: functional
MX1 [15] = assay: Cytotoxicity against human MX1 cells […] assessed as inhibition of cell growth measured after 72 hrs by MTT assay; format: functional, cell-based; details: MX1, 72 h
MC-38 [16] = assay: Antitumor activity against mouse MC38 cells implanted in C57BL/6 mouse assessed as increase in CD8+T cells in tumor at 50 mg/kg, po qd measured after 17 days by flow cytometry analysis; format: functional, organism-based; details: time 17.0 day
MC-38 [17] = assay: Antitumor activity against mouse MC38 cells implanted in C57BL/6 mouse assessed as tumor growth inhibition at 50 mg/kg, po qd measured after 17 days; format: functional; details: time 17 day

| Structure (SMILES) | pIC50 [1] | inhibition [2] | inhibition [3] | T1/2 (Felis catus [4]) [h] | inhibition [5] | inhibition (THP-1) | inhibition [6] | inhibition [7] [%] | Activity (MC-38 [8]) | inhibition [9] | inhibition [10] | inhibition [11] | PARP1-DNA trapping activity [12] | T1/2 (Felis catus [13]) [h] | PF50 (MX1 [14]) | pIC50 (MX1 [15]) | Activity (MC-38 [16]) | TGI (MC-38 [17]) [%] |
| --- | --- | --- | --- | --- | --- | --- | --- | --- | --- | --- | --- | --- | --- | --- | --- | --- | --- | --- |
| O=C(c1cc(Cc2n[nH]c(=O)c3ccccc23)ccc1F)N1CCn2c(nnc2-c2ccc(Br)o2)C1 | > 12.00 |  |  |  |  |  |  |  |  |  |  |  |  |  |  |  |  |  |
| CCC(CC)N1CCN(C(=O)c2cc(Cn3c(=O)[nH]c(=O)c4ccccc43)ccc2F)CC1=O |  | Active | inactive | 2.33 | inactive | Active | inactive | 45 | Active | inactive | inactive | inactive | Active | 2.36 |  |  |  |  |
| O=C(c1cc(Cc2n[nH]c(=O)c3ccccc23)ccc1F)N1CCN(C(=O)C2CC2)CC1 [OLAPARIB] |  |  |  | 0.29 |  |  |  |  |  |  |  |  |  | 0.852 | >10 | 8.08 | inactive | 57.9 |
